Experimental data: ChEMBL document CHEMBL1156855, “Identification of potent and selective VEGFR receptor tyrosine kinase inhibitors having new amide isostere headgroups” (Bioorg Med Chem Lett, 2010)
pIC50: −log10 of the molar value. Activity calls are given as the source filed them. No cut-off for these calls is given here.

Tests used:
[1] = target: T1, Hepatocyte growth factor receptor (Homo sapiens, UniProt P08581); assay: Inhibition of recombinant GST-fused c-Met expressed in baculovirus infected high five cells by DELFIA
[2] = target: Vascular endothelial growth factor receptor 2 (Homo sapiens, UniProt P35968); assay: Inhibition of recombinant GST-fused VEGFR2 expressed in baculovirus infected Sf9 cells by DELFIA
[3] = target: Vascular endothelial growth factor receptor 1 (Homo sapiens) (UniProt P17948); assay: Inhibition of human VEGFR1
[4] = target: Vascular endothelial growth factor receptor 3 (Homo sapiens) (UniProt P35916); assay: Inhibition of human VEGFR3
[5] = target: Receptor-type tyrosine-protein kinase FLT3 (Homo sapiens) (UniProt P36888); assay: Inhibition of human Flt3
HUVEC [6] = assay: Inhibition of VEGF-induced HUVEC proliferation; format: functional, cell-based; conditions: Homo sapiens
[7] = target: T1, Hepatocyte growth factor receptor; assay: Inhibition of human c-MET
HUVEC [8] = assay: Antiangiogenic activity in HUVEC assessed as inhibition of tubule branching; format: functional, cell-based; conditions: Homo sapiens
[9] = target: Aurora kinase A (Homo sapiens) (UniProt O14965); assay: Inhibition of human Aurora A
[10] = target: Angiopoietin-1 receptor (Homo sapiens) (UniProt Q02763); assay: Inhibition of human Tie2
HUVEC [11] = assay: Antiangiogenic activity in HUVEC assessed as inhibition of VEGF-induced tubule branching at 100 nM; format: functional; conditions: Homo sapiens
HUVEC [12] = assay: Antiangiogenic activity in HUVEC assessed as inhibition of VEGF-induced tubule growth at 100 nM; format: functional; conditions: Homo sapiens
HUVEC [13] = assay: Antiangiogenic activity in HUVEC assessed as inhibition of tubule length; format: functional, cell-based; conditions: Homo sapiens
[14] = target: Macrophage-stimulating protein receptor (Homo sapiens) (UniProt Q04912); assay: Inhibition of human RON
[15] = target: T1, Hepatocyte growth factor receptor; assay: Inhibition of TPR-fused Met autophosphorylation expressed in HEK293T cells after 150 mins by ELISA; format: cell-based; conditions: hek-293t
[16] = target: Inhibitor of nuclear factor kappa-B kinase subunit beta (Homo sapiens) (UniProt O14920); conditions: 0.1 uM
Description: Inhibition of human IKK-beta at 0.1 uM

[17] = target: Ephrin type-B receptor 4 (Homo sapiens) (UniProt P54760); conditions: 0.1 uM
Description: Inhibition of human EphB4 at 0.1 uM

[18] = target: Dual specificity mitogen-activated protein kinase kinase 1 (Homo sapiens) (UniProt Q02750); conditions: 0.1 uM
Description: Inhibition of human MEK1 at 0.1 uM

[19] = target: Glycogen synthase kinase-3 beta (Homo sapiens) (UniProt P49841); conditions: 0.1 uM
Description: Inhibition of human GSK3-beta at 0.1 uM

[20] = target: 3-phosphoinositide-dependent protein kinase 1 (Homo sapiens) (UniProt O15530); conditions: 0.1 uM
Description: Inhibition of human PDK1 at 0.1 uM

[21] = target: High affinity nerve growth factor receptor (Homo sapiens) (UniProt P04629); conditions: 0.1 uM
Description: Inhibition of human TrkA at 0.1 uM

[22] = target: Serine/threonine-protein kinase haspin (Homo sapiens) (UniProt Q8TF76); conditions: 0.1 uM
Description: Inhibition of human haspin at 0.1 uM

[23] = target: Proto-oncogene tyrosine-protein kinase receptor Ret (Homo sapiens) (UniProt P07949); conditions: 0.1 uM
Description: Inhibition of human Ret at 0.1 uM

[24] = target: Serine/threonine-protein kinase Chk1 (Homo sapiens) (UniProt O14757); conditions: 0.1 uM
Description: Inhibition of human CHK1 at 0.1 uM

[25] = target: Mast/stem cell growth factor receptor Kit (Homo sapiens) (UniProt P10721); conditions: 0.1 uM
Description: Inhibition of human c-Kit at 0.1 uM

[26] = target: T1, Hepatocyte growth factor receptor; conditions: 0.1 uM
Description: Inhibition of human c-MET at 0.1 uM

[27] = target: Vascular endothelial growth factor receptor 1 (Homo sapiens) (UniProt P17948); assay: Inhibition of human VEGFR1 at 0.1 uM
[28] = target: Receptor-type tyrosine-protein kinase FLT3 (Homo sapiens) (UniProt P36888); conditions: 0.1 uM
Description: Inhibition of human Flt3 at 0.1 uM

[29] = target: ALK tyrosine kinase receptor (Homo sapiens) (UniProt Q9UM73); conditions: 0.1 uM
Description: Inhibition of human ALK at 0.1 uM

[30] = target: Tyrosine-protein kinase JAK3 (Homo sapiens) (UniProt P52333); conditions: 0.1 uM
Description: Inhibition of human JAK3 at 0.1 uM

[31] = target: Serine/threonine-protein kinase pim-1 (Homo sapiens) (UniProt P11309); conditions: 0.1 uM
Description: Inhibition of human Pim1 at 0.1 uM

[32] = target: Cytoplasmic tyrosine-protein kinase BMX (Homo sapiens) (UniProt P51813); conditions: 0.1 uM
Description: Inhibition of human Bmx at 0.1 uM

[33] = target: Tyrosine-protein kinase JAK2 (Homo sapiens) (UniProt O60674); conditions: 0.1 uM
Description: Inhibition of human JAK2 at 0.1 uM

[34] = target: LIM domain kinase 1 (Homo sapiens) (UniProt P53667); conditions: 0.1 uM
Description: Inhibition of human LIMK1 at 0.1 uM

[35] = target: Focal adhesion kinase 1 (Homo sapiens) (UniProt Q05397); conditions: 0.1 uM
Description: Inhibition of human FAK at 0.1 uM

[36] = target: Macrophage-stimulating protein receptor (Homo sapiens) (UniProt Q04912); conditions: 0.1 uM
Description: Inhibition of human RON at 0.1 uM

[37] = target: RAC-alpha serine/threonine-protein kinase (Homo sapiens) (UniProt P31749); conditions: 0.1 uM
Description: Inhibition of human PKBalpha at 0.1 uM

[38] = target: RAF proto-oncogene serine/threonine-protein kinase (Homo sapiens) (UniProt P04049); conditions: 0.1 uM
Description: Inhibition of human c-Raf at 0.1 uM

[39] = target: Phosphatidylinositol 4,5-bisphosphate 3-kinase catalytic subunit beta isoform (Homo sapiens) (UniProt P42338); conditions: 0.1 uM
Description: Inhibition of human PI3Kbeta at 0.1 uM

[40] = target: Angiopoietin-1 receptor (Homo sapiens) (UniProt Q02763); conditions: 0.1 uM
Description: Inhibition of human Tie2 at 0.1 uM

[41] = target: Vascular endothelial growth factor receptor 3 (Homo sapiens) (UniProt P35916); assay: Inhibition of human VEGFR3 at 0.1 uM

## Cn1cnc(-c2cc3nccc(Oc4ccc(NC(=O)CC(=O)Nc5ccccc5)cc4F)c3s2)c1
[1]
  pIC50: 7.52
[2]
  pIC50: 7.70

## CN(C(=O)CC(=O)Nc1ccc(Oc2ccnc3cc(-c4cn(C)cn4)sc23)c(F)c1)c1ccccc1
[1]
  pIC50: 7.40

## COc1cc2nccc(Oc3ccc(NC(CC(=O)Nc4ccccc4)C(F)(F)F)cc3F)c2cc1OC (configuration not stated)
[1]
  pIC50: 6.04
[2]
  pIC50: 7.52

## Cn1cnc(-c2cc3nccc(Oc4ccc(NC(CC(=O)Nc5ccccc5)C(F)(F)F)cc4F)c3s2)c1 (configuration not stated)
[2]
  pIC50: 8.00

## O=C(CC(Nc1ccc(Oc2cc(NC(=O)N3CCCC3)ncn2)c(F)c1)C(F)(F)F)Nc1ccccc1 (configuration not stated)
[3]
  inhibition: Active
[1]
  pIC50: < 5.30
[4]
  inhibition: Active
[5]
  inhibition: inactive
HUVEC [6]
  pIC50: 7.40
[7]
  inhibition: inactive
HUVEC [8]
  pIC50: 8.22
[9]
  inhibition: inactive
[10]
  inhibition: inactive
HUVEC [11]
  inhibition at 0.1 µM: 95%
HUVEC [12]
  inhibition at 0.1 µM: 97%
HUVEC [13]
  pIC50: 8.00
[14]
  inhibition: inactive
[2]
  pIC50: 7.40

## Cn1cnc(-c2cc3nccc(Oc4ccc(NC(CC(=O)Nc5ccc(F)cc5)C(F)(F)F)cc4F)c3s2)c1 (configuration not stated)
[1]
  pIC50: 7.05
[15]
  pIC50: 6.43
[2]
  pIC50: 7.70

## COc1ccccc1NC(=O)CC(Nc1ccc(Oc2ccnc3cc(-c4cn(C)cn4)sc23)c(F)c1)C(F)(F)F (configuration not stated)
[16]
  inhibition: < 50%
[17]
  inhibition: < 50%
[18]
  inhibition: < 50%
[1]
  pIC50: 6.08
[19]
  inhibition: < 50%
[20]
  inhibition: < 50%
[21]
  inhibition: 50%
[22]
  inhibition: < 50%
[23]
  inhibition: < 50%
[24]
  inhibition: < 50%
[25]
  inhibition: < 50%
[26]
  inhibition: 50%
[27]
  inhibition: > 95%
[28]
  inhibition: 50%
[29]
  inhibition: < 50%
[30]
  inhibition: < 50%
[31]
  inhibition: < 50%
[32]
  inhibition: < 50%
[33]
  inhibition: < 50%
[34]
  inhibition: < 50%
[35]
  inhibition: < 50%
[36]
  inhibition: 50%
[37]
  inhibition: < 50%
[38]
  inhibition: < 50%
[39]
  inhibition: < 50%
[40]
  inhibition: 50%
[15]
  pIC50: 5.74
[2]
  pIC50: 7.70
[41]
  inhibition: > 95%

## COc1cc2nccc(Oc3ccc(NC(=O)CC(Nc4ccccc4)C(F)(F)F)cc3F)c2cc1OC (configuration not stated)
[1]
  pIC50: 6.17
[2]
  pIC50: 6.44

## Cn1cnc(-c2cc3nccc(Oc4ccc(NC(=O)CC(Nc5ccccc5)C(F)(F)F)cc4F)c3s2)c1 (configuration not stated)
[2]
  pIC50: 6.68

## COc1cc2ncnc(Oc3ccc(NC(=O)CC(Nc4ccccc4)C(F)(F)F)cc3F)c2cc1OC (configuration not stated)
[1]
  pIC50: < 5.30
[2]
  pIC50: 6.07

## Cn1cnc(-c2cc3nccc(Oc4ccc(NC(CC(=O)Nc5ccc(F)cc5)C(F)(F)F)cc4)c3s2)c1 (configuration not stated)
[1]
  pIC50: 6.74
[15]
  pIC50: 6.06
[2]
  pIC50: 7.70

## O=C(CC(Nc1ccc(F)cc1)C(F)(F)F)Nc1ccc(Oc2cc(NC(=O)N3CCCC3)ncn2)c(F)c1 (configuration not stated)
[1]
  pIC50: < 5.30
[2]
  pIC50: 5.92
